Laboratory results: PubChem BioAssay AID1963976 (Molecular Pharmacology Branch, DTP, NCI, 2024)

System: 435261-313-R-J1-PDC tumor spheroid viability
Assay: Anticancer human tumor 435261-313-R-J1-PDC patient-derived colon adenocarcinoma cell line growth inhibition [PI3K]
Details: spheroids with HUVEC and MSC; for IC50: curve of first compound; for viability, T/C: stronger effect = lower value
Text: Combinatorial screen of targeted agents with the PI3K inhibitors inavolisib, alpelisib, duvelisib, and copanlisib in multi-cell type tumor spheroids
A high-throughput screen of multi-cell type tumor spheroids was designed to identify active combinations of targeted small molecules and PI3K pathway inhibitors. Complex spheroids include a stromal component modeled by human endothelial cells (HUVEC) and fibroblasts modeled by human mesenchymal stem cells (MSCs). The concentration ranges selected for each drug and investigational agent were based upon clinically achievable concentrations if the clinical Cmax of the agent was known.
Compounds. The drugs and investigational agents: inavolisib (NSC800729), alpelisib (NSC765974), duvelisib (NSC772469), copanlisib (NSC816437), ipatasertib (NSC767898), afuresertib (NSC778305), talazoparib (NSC767125), sapanisertib (NSC764658), selumetinib (NSC741078), tovorafenib (DAY101, NSC766906), vemurafenib (NSC761431), ravoxertinib (NSC781343), sotorasib (NSC818433), MRTX1133 (NSC 836407), abemaciclib (NSC 768073), palbociclib (NSC758247), venetoclax (NSC 766270), SY5609 (NSC837396), enzalutamide (NSC755605), and darolutamide (NSC825331), were obtained from the National Cancer Institute (NCI) Developmental Therapeutics Program Chemical Repository. The FDA-approved anticancer drug set is available from the NCI Developmental Therapeutics Program. […] The stock solutions were prepared in dimethyl sulfoxide (DMSO, Sigma-Aldrich, St. Louis, MO, cat. D2650) at 800-fold the tested concentration and stored at -70 degrees C prior to their use. All drugs and investigational agents were tested over a range starting from a high concentration at or near the clinical Cmax and decreasing in half-log increments. If the clinical Cmax for an agent had not been determined, the highest concentration tested was 10 microM.
Cell Culture. All cells were maintained in an incubator at 37 degrees C and 5% CO2 with 95% humidity. The PDC lines were cultured according to standard operating procedures established by the NCI PDMR (https://pdmr.cancer.gov/sops/default.htm). All PDCs were thawed and cultured in Matrigel-coated flasks prepared with a working solution of 1X Ham's F-12 nutrient mix, without supplementation (Invitrogen, Waltham, MA, cat. 11765054), 100 U/mL penicillin-streptomycin (Invitrogen, cat. 15140122), and 2.5% Matrigel (Corning Inc., Corning, NY, cat. 354248) for the first three passages. The 354836-022-R-J1-PDC, 475296-252-R-J1-PDC, and 997726-040-R-J2-PDC lines were cultured in 6A media, which includes advanced DMEM/F-12 (Thermo Fisher Scientific, cat. 12634028), 10 mM HEPES (Thermo Fisher Scientific, cat. 15630080), 1X GlutaMAX supplement (Thermo Fisher Scientific, cat. 35050061), 0.1 mg/mL primocin (InvivoGen, San Diego, CA, cat. ant-pm-2), 10% defined fetal bovine serum, heat inactivated (HyClone Laboratories Inc., Logan, UT, cat. SH30070.03HI), 50% L-WRN conditioned media (ATCC, cat. CRL-3276), 1.25 mM N-Acetyl-L-cysteine (Sigma-Aldrich, cat. A9165), 10 mM nicotinamide (Sigma-Aldrich, cat. N0636), 1X B-27 supplement (Thermo Fisher Scientific, cat. 17504044), 1X N-2 supplement (Thermo Fisher Scientific, cat. 17502048), and 10 microM Y-27632 dihydrochloride (Tocris Bioscience, Bristol, United Kingdom, cat. 1254). The 624824-186-R-J2-PDC line was cultured in 6C/Colon 1B media, which includes all 6A media components plus 50 ng/mL human EGF recombinant protein (Thermo Fisher Scientific, cat. PHG0311). […]
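Also: spheroids exposed to compounds for 7 days.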

IC50 (second compound 0.00316 µM): < 9.49 nM | IC50 (second compound 0.01 µM): < 9.49 nM | IC50 (second compound 0.0316 µM): < 9.49 nM | IC50 (second compound 0.1 µM): < 9.49 nM | IC50 (second compound 0.316 µM): < 9.49 nM | IC50 (second compound 1 µM): < 9.49 nM
SMILES: Cn1cnc2c(F)c(Nc3ccc(Br)cc3Cl)c(C(=O)NOCCO)cc21 + CC(Nc1ccc2c(c1)OCCn1cc(N3C(=O)OCC3C(F)F)nc1-2)C(N)=O
viability, T/C (second compound 0.00316 µM, first compound 0.00949 µM): 28.1% | viability, T/C (second compound 0.00316 µM, first compound 0.03 µM): 22.7% | viability, T/C (second compound 0.00316 µM, first compound 0.0949 µM): 14.8% | viability, T/C (second compound 0.00316 µM, first compound 0.3 µM): 15.4% | viability, T/C (second compound 0.00316 µM, first compound 0.949 µM): 16.1% | viability, T/C (second compound 0.00316 µM, first compound 3 µM): 11% | viability, T/C (second compound 0.01 µM, first compound 0.00949 µM): 25.1% | viability, T/C (second compound 0.01 µM, first compound 0.03 µM): 24.3% | viability, T/C (second compound 0.01 µM, first compound 0.0949 µM): 16.8% | viability, T/C (second compound 0.01 µM, first compound 0.3 µM): 16.2% | viability, T/C (second compound 0.01 µM, first compound 0.949 µM): 16.1% | viability, T/C (second compound 0.01 µM, first compound 3 µM): 11.5% | viability, T/C (second compound 0.0316 µM, first compound 0.00949 µM): 25.9% | viability, T/C (second compound 0.0316 µM, first compound 0.03 µM): 23.4% | viability, T/C (second compound 0.0316 µM, first compound 0.0949 µM): 15.4% | viability, T/C (second compound 0.0316 µM, first compound 0.3 µM): 14.8% | viability, T/C (second compound 0.0316 µM, first compound 0.949 µM): 12.2% | viability, T/C (second compound 0.0316 µM, first compound 3 µM): 6.61% | viability, T/C (second compound 0.1 µM, first compound 0.00949 µM): 21.4% | viability, T/C (second compound 0.1 µM, first compound 0.03 µM): 12.5% | viability, T/C (second compound 0.1 µM, first compound 0.0949 µM): 13.1% | viability, T/C (second compound 0.1 µM, first compound 0.3 µM): 11.7% | viability, T/C (second compound 0.1 µM, first compound 0.949 µM): 10.7% | viability, T/C (second compound 0.1 µM, first compound 3 µM): 6.55% | viability, T/C (second compound 0.316 µM, first compound 0.00949 µM): 12% | viability, T/C (second compound 0.316 µM, first compound 0.03 µM): 12.2% | viability, T/C (second compound 0.316 µM, first compound 0.0949 µM): 4.89% | viability, T/C (second compound 0.316 µM, first compound 0.3 µM): 8.13% | viability, T/C (second compound 0.316 µM, first compound 0.949 µM): 7.5% | viability, T/C (second compound 0.316 µM, first compound 3 µM): 2.69% | viability, T/C (second compound 1 µM, first compound 0.00949 µM): 11.9% | viability, T/C (second compound 1 µM, first compound 0.03 µM): 9.34% | viability, T/C (second compound 1 µM, first compound 0.0949 µM): 5.53% | viability, T/C (second compound 1 µM, first compound 0.3 µM): 6.3% | viability, T/C (second compound 1 µM, first compound 0.949 µM): 4.59% | viability, T/C (second compound 1 µM, first compound 3 µM): 0.73%
